Test results from US8551984B2, “Aminopyrimidines as SYK inhibitors” (Merck Sharp & Dohme Corp., priority 2009, dated 2013).

Biological target: recombinant human SYK (GST-hSYK fusion protein) (Homo sapiens, UniProt P43405)
Experiment: biochemical
Conditions: Syk IC50, HTRF, recombinant human GST-SYK
Excerpt: Homogeneous Time-Resolved Fluorescence (HTRF) Assay for the Recombinant Human SYK Enzyme:

| IC50 [nM] | Structure (SMILES) |
| --- | --- |
| < 0.5 | Cc1cc(Nc2nccc([C@H](C)F)n2)cc(-c2cnc([C@@]3(O)CC[C@H](C(=O)O)C(C)(C)C3)s2)c1 [(1S,4R)-4-{5-[3-({4-[(1S)-1-fluoroethyl]pyrimidin-2-yl}amino)-5-methylphenyl]-1,3-thiazol-2-yl}-4-hydroxy-2,2-dimethylcyclohexanecarboxylic acid] |

Same assay, conditions: rhSYK Activity, Table 10, Formula A

| IC50 [nM] | Structure (SMILES) |
| --- | --- |
| < 100 | COc1ccnc(Nc2cc(C)cc(-c3cnc(C4(O)CCNC(=O)CC4)s3)c2)n1 (stereo not drawn) [Example 10A-1] |
| < 100 | COCc1cc(Nc2nccc(C(F)(F)F)n2)cc(-c2cnc(C3(O)CCNC(=O)CC3)s2)c1 (stereo not drawn) [Example 10A-4] |

Same assay, conditions: rhSYK Activity, Table 10, Formula B

| IC50 [nM] | Structure (SMILES) |
| --- | --- |
| < 100 | Cc1cc(Nc2nccc(C(F)(F)F)n2)cc(-c2cnc(C3=CC(=O)NCC3)s2)c1 [Example 10B-1] |

Same assay, conditions: rhSYK Activity, Table 15

| IC50 [nM] | Structure (SMILES) |
| --- | --- |
| < 100 | OC1(c2ncc(-c3cccc(Nc4nccc(C(F)(F)F)n4)c3)s2)CCCC1 [Example 15-2] |
| < 100 | Cc1cc(Nc2nccc(C(F)(F)F)n2)cc(-c2cnc(C(C)(O)C(F)(F)F)s2)c1 (stereo not drawn) [Example 15-4] |
| < 100 | CC(O)c1ncc(-c2cccc(Nc3nccc(C(F)(F)F)n3)c2)s1 (stereo not drawn) [Example 15-5, 1-[5-(3-{[4-(Trifluoromethyl)pyrimidin-2-yl]amino}phenyl)-1,3-thiazol-2-yl]ethanol] |

Same assay, conditions: rhSYK Activity, Table 21

| IC50 [nM] | Structure (SMILES) |
| --- | --- |
| < 100 | FC(F)(F)c1ccnc(Nc2cccc(-c3cnc(C4CCCO4)s3)c2)n1 (stereo not drawn) [Example 21-1] |
| < 100 | CN1CCOC(c2ncc(-c3cccc(Nc4nccc(C(F)(F)F)n4)c3)s2)C1 (stereo not drawn) [Example 21-2] |
| < 100 | CS(=O)(=O)Cc1ncc(-c2cccc(Nc3nccc(C(F)(F)F)n3)c2)s1 [Example 21-3] |
| < 100 | Cn1cc(-c2ncc(-c3cccc(Nc4nccc(C(F)(F)F)n4)c3)s2)cn1 [Example 21-4] |
| < 100 | FC(F)(F)c1ccnc(Nc2cccc(-c3cnc(C4CCOC4)s3)c2)n1 (stereo not drawn) [Example 21-5] |
| < 100 | FC(F)(F)c1ccnc(Nc2cccc(-c3cnc(CN4CCOCC4)s3)c2)n1 [Example 21-6] |
| 1000 to 10000 | FC(F)(F)c1ccnc(Nc2cccc(-c3cnc(C4CCc5ccccc54)s3)c2)n1 (stereo not drawn) [Example 21-7] |
| 100 to 1000 | CCN(CC)CCC(C)(O)c1ncc(-c2cccc(Nc3nccc(C(F)(F)F)n3)c2)s1 (stereo not drawn) [Example 21-8] |
| 100 to 1000 | FC1(F)CC(c2ncc(-c3cccc(Nc4nccc(C(F)(F)F)n4)c3)s2)C1 [Example 21-9] |
| < 100 | O=C1OCCN1Cc1ncc(-c2cccc(Nc3nccc(C(F)(F)F)n3)c2)s1 [Example 21-10] |
| 100 to 1000 | COC(=O)[C@H]1CC[C@H](c2ncc(-c3cccc(Nc4nccc(C(F)(F)F)n4)c3)s2)CC1 [Example 21-11, methyl trans-4-[5-(3-{[4-(trifluoromethyl)pyrimidin-2-yl]amino}phenyl)-1,3-thiazol-2-yl]cyclohexanecarboxylate] |
| < 100 | O=C(NCCO)[C@H]1CC[C@H](c2ncc(-c3cccc(Nc4nccc(C(F)(F)F)n4)c3)s2)CC1 [Example 21-12] |
| < 100 | O=C1CC(c2ncc(-c3cccc(Nc4nccc(C(F)(F)F)n4)c3)s2)CN1 (stereo not drawn) [Example 21-14] |

Same assay, conditions: rhSYK Activity, table of Examples 16-x

| IC50 [nM] | Structure (SMILES) |
| --- | --- |
| < 100 | CCCC(=O)Nc1cc(Nc2nccc(C(F)(F)F)n2)cc(-c2cnc(C3(O)CCC3)s2)c1 [Example 16-1] |
| < 100 | O=C(Nc1cc(Nc2nccc(C(F)(F)F)n2)cc(-c2cnc(C3(O)CCC3)s2)c1)C1CC1 [Example 16-2] |

Same assay, conditions: rhSYK Activity, table of Examples 19-x

| IC50 [nM] | Structure (SMILES) |
| --- | --- |
| < 100 | CCNC(=O)Nc1cc(Nc2nccc(C(F)(F)F)n2)cc(-c2cnc(C3(O)CCC3)s2)c1 [Example 19-1] |
| < 100 | NC(=O)Nc1cc(Nc2nccc(C(F)(F)F)n2)cc(-c2cnc(C3(O)CCC3)s2)c1 [Example 19-2] |
| < 100 | CNC(=O)Nc1cc(Nc2nccc(C(F)(F)F)n2)cc(-c2cnc(C3(O)CCC3)s2)c1 [Example 19-3] |
| < 100 | CC(C)NC(=O)Nc1cc(Nc2nccc(C(F)(F)F)n2)cc(-c2cnc(C3(O)CCC3)s2)c1 [Example 19-4] |
| < 100 | NC(=O)NC(=O)Nc1cc(Nc2nccc(C(F)(F)F)n2)cc(-c2cnc(C3(O)CCC3)s2)c1 [Example 19-5] |
